Measured values: article PMC7385619, “A triple action CDK4/6-PI3K-BET inhibitor with augmented cancer cell cytotoxicity” (Cell Discovery, 2020)
Like-named read-outs stand apart in the source and are kept apart here.

Legend:
Experiment in all cases: KINOMEscan assay (Eurofins DiscoverX)
Type in all cases: binding
kinome (kinase panel) [1] = target: T1, kinome (kinase panel) (Homo sapiens, UniProt Q8IVW4); settings: CDKL3; 1000 nM; read-out: Percent Control
T1 construct: purchased Eurofins DiscoverX

kinome (kinase panel) [2] = target: T2, kinome (kinase panel) (Homo sapiens, UniProt P09769); settings: FGR; 1000 nM; read-out: Percent Control
T2 construct: purchased Eurofins DiscoverX

kinome (kinase panel) [3] = target: T3, kinome (kinase panel) (Homo sapiens, UniProt Q00535); settings: CDK5; 1000 nM; read-out: Percent Control
T3 construct: purchased Eurofins DiscoverX

kinome (kinase panel) [4] = target: T4, kinome (kinase panel) (Homo sapiens, UniProt Q8WU08); settings: YANK1 (STK32A); 1000 nM; read-out: Percent Control
T4 construct: purchased Eurofins DiscoverX

kinome (kinase panel) [5] = target: T5, kinome (kinase panel) (Homo sapiens, UniProt P53778); settings: p38-gamma (Entrez MAPK12); 1000 nM; read-out: Percent Control
T5 construct: purchased Eurofins DiscoverX

kinome (kinase panel) [6] = target: T6, kinome (kinase panel) (Homo sapiens, UniProt Q13873); settings: BMPR2; 1000 nM; read-out: Percent Control
T6 construct: purchased Eurofins DiscoverX

kinome (kinase panel) [7] = target: T7, kinome (kinase panel) (Homo sapiens, UniProt P29597); settings: 1000 nM, read-out: Percent Control
T7 construct: purchased Eurofins DiscoverX

kinome (kinase panel) [8] = target: T8, kinome (kinase panel) (Homo sapiens, UniProt Q9BWU1); settings: CDK11 (Entrez CDK19); 1000 nM; read-out: Percent Control
T8 construct: purchased Eurofins DiscoverX

kinome (kinase panel) [9] = target: T9, kinome (kinase panel) (Homo sapiens, UniProt Q12852); settings: DLK (Entrez MAP3K12); 1000 nM; read-out: Percent Control
T9 construct: purchased Eurofins DiscoverX

kinome (kinase panel) [10] = target: T10, kinome (kinase panel) (Homo sapiens, UniProt P36888, D835H); settings: […]; 1000 nM; read-out: Percent Control
T10 construct: purchased Eurofins DiscoverX

kinome (kinase panel) [11] = target: T11, kinome (kinase panel) (Homo sapiens, UniProt O14976); settings: GAK; 1000 nM; read-out: Percent Control
T11 construct: purchased Eurofins DiscoverX

kinome (kinase panel) [12] = target: T12, kinome (kinase panel) (Homo sapiens, UniProt O14757); settings: CHEK1; 1000 nM; read-out: Percent Control
T12 construct: purchased Eurofins DiscoverX

kinome (kinase panel) [13] = target: T13, kinome (kinase panel) (Homo sapiens, UniProt Q00532); settings: CDKL1; 1000 nM; read-out: Percent Control
T13 construct: purchased Eurofins DiscoverX

kinome (kinase panel) [14] = target: T14, kinome (kinase panel) (Homo sapiens, UniProt Q9HCP0); settings: CSNK1G1; 1000 nM; read-out: Percent Control
T14 construct: purchased Eurofins DiscoverX

kinome (kinase panel) [15] = target: T15, kinome (kinase panel) (Homo sapiens, UniProt Q9NYL2); settings: ZAK; 1000 nM; read-out: Percent Control
T15 construct: purchased Eurofins DiscoverX

kinome (kinase panel) [16] = target: T16, kinome (kinase panel) (Homo sapiens, UniProt P42679); settings: CTK (Entrez MATK); 1000 nM; read-out: Percent Control
T16 construct: purchased Eurofins DiscoverX

kinome (kinase panel) [17] = target: T17, kinome (kinase panel) (Homo sapiens, UniProt P06241); settings: FYN; 1000 nM; read-out: Percent Control
T17 construct: purchased Eurofins DiscoverX

kinome (kinase panel) [18] = target: T18, kinome (kinase panel) (Homo sapiens, UniProt O75716); settings: STK16; 1000 nM; read-out: Percent Control
T18 construct: purchased Eurofins DiscoverX

kinome (kinase panel) [19] = target: T19, kinome (kinase panel) (Homo sapiens, UniProt P36896); settings: ACVR1B; 1000 nM; read-out: Percent Control
T19 construct: purchased Eurofins DiscoverX

kinome (kinase panel) [20] = target: T20, kinome (kinase panel) (Homo sapiens, UniProt Q99683); settings: ASK1 (Entrez MAP3K5); 1000 nM; read-out: Percent Control
T20 construct: purchased Eurofins DiscoverX

kinome (kinase panel) [21] = target: T21, kinome (kinase panel) (Homo sapiens, UniProt P16234); settings: PDGFRA; 1000 nM; read-out: Percent Control
T21 construct: purchased Eurofins DiscoverX

kinome (kinase panel) [22] = target: T22, kinome (kinase panel) (Homo sapiens, UniProt Q5VT25); settings: MRCKA (Entrez CDC42BPA); 1000 nM; read-out: Percent Control
T22 construct: purchased Eurofins DiscoverX

kinome (kinase panel) [23] = target: T23, kinome (kinase panel) (Homo sapiens, UniProt O43293); settings: DAPK3; 1000 nM; read-out: Percent Control
T23 construct: purchased Eurofins DiscoverX

kinome (kinase panel) [24] = target: T24, kinome (kinase panel) (Homo sapiens, UniProt P48730); settings: CSNK1D; 1000 nM; read-out: Percent Control
T24 construct: purchased Eurofins DiscoverX

kinome (kinase panel) [25] = target: T25, kinome (kinase panel) (Homo sapiens, UniProt P10721, T670I/V559D); settings: read-out: Percent Control
T25 construct: purchased Eurofins DiscoverX

kinome (kinase panel) [26] = target: T26, kinome (kinase panel) (Homo sapiens, UniProt Q59H18); settings: TNNI3K; 1000 nM; read-out: Percent Control
T26 construct: purchased Eurofins DiscoverX

kinome (kinase panel) [27] = target: T27, kinome (kinase panel) (Homo sapiens, UniProt Q8NEB9); settings: VPS34 (PIK3C3); 1000 nM; read-out: Percent Control
T27 construct: purchased Eurofins DiscoverX

kinome (kinase panel) [28] = target: T28, kinome (kinase panel) (Homo sapiens, UniProt Q02779); settings: MLK2 (Entrez MAP3K10); 1000 nM; read-out: Percent Control
T28 construct: purchased Eurofins DiscoverX

kinome (kinase panel) [29] = target: T29, kinome (kinase panel) (Homo sapiens, UniProt Q9BYT3); settings: STK33; 1000 nM; read-out: Percent Control
T29 construct: purchased Eurofins DiscoverX

kinome (kinase panel) [30] = target: T30, kinome (kinase panel) (Homo sapiens, UniProt Q8TDR2); settings: STK35; 1000 nM; read-out: Percent Control
T30 construct: purchased Eurofins DiscoverX

kinome (kinase panel) [31] = target: T31, kinome (kinase panel) (Homo sapiens, UniProt P49840); settings: GSK3A; 1000 nM; read-out: Percent Control
T31 construct: purchased Eurofins DiscoverX

kinome (kinase panel) [32] = target: T32, kinome (kinase panel) (Homo sapiens, UniProt Q9UQM7); settings: CAMK2A; 1000 nM; read-out: Percent Control
T32 construct: purchased Eurofins DiscoverX

T7 sequence (P29597 whole entry): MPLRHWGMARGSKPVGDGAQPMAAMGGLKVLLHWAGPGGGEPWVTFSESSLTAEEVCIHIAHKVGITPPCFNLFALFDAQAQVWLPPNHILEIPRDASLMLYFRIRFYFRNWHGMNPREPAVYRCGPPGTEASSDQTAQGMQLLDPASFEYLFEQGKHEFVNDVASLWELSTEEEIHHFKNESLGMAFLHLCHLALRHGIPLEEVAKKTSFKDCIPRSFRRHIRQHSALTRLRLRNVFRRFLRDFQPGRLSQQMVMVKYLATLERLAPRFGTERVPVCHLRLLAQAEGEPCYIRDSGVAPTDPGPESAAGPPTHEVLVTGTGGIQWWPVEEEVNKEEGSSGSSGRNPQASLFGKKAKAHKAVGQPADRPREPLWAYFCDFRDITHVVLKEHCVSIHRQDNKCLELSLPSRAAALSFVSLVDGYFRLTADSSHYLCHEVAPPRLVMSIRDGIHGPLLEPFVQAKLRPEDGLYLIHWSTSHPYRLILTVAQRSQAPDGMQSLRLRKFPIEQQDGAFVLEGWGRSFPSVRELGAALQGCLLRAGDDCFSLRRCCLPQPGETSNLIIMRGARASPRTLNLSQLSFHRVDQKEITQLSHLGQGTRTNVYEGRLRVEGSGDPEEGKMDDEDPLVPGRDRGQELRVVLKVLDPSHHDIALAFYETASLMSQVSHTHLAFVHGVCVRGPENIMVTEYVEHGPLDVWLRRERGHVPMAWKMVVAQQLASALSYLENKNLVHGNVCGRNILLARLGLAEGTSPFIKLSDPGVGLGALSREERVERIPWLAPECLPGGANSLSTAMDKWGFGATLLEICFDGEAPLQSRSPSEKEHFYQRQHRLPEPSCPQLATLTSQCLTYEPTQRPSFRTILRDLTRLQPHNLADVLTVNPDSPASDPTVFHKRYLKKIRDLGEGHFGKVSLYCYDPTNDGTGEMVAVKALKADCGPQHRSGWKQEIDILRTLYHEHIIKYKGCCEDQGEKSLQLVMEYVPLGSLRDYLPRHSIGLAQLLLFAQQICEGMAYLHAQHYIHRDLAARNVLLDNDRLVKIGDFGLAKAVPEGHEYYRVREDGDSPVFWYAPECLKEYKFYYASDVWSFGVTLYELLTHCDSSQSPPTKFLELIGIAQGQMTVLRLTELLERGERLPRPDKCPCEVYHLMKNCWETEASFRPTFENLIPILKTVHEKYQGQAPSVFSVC
T29 sequence (Q9BYT3 whole entry): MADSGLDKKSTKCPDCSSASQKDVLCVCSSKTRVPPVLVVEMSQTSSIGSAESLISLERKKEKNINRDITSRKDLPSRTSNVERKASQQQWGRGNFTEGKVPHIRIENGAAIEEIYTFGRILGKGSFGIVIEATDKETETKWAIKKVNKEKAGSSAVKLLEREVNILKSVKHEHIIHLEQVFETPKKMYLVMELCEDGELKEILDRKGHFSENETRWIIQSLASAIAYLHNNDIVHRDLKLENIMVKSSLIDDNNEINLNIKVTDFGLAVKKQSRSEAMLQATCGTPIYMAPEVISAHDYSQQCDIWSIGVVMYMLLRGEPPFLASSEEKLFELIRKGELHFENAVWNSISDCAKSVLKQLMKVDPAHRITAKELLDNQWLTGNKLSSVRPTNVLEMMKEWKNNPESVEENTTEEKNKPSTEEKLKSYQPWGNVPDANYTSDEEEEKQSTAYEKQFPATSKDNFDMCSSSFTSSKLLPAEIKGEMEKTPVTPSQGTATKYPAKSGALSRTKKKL
T11 sequence (O14976 whole entry): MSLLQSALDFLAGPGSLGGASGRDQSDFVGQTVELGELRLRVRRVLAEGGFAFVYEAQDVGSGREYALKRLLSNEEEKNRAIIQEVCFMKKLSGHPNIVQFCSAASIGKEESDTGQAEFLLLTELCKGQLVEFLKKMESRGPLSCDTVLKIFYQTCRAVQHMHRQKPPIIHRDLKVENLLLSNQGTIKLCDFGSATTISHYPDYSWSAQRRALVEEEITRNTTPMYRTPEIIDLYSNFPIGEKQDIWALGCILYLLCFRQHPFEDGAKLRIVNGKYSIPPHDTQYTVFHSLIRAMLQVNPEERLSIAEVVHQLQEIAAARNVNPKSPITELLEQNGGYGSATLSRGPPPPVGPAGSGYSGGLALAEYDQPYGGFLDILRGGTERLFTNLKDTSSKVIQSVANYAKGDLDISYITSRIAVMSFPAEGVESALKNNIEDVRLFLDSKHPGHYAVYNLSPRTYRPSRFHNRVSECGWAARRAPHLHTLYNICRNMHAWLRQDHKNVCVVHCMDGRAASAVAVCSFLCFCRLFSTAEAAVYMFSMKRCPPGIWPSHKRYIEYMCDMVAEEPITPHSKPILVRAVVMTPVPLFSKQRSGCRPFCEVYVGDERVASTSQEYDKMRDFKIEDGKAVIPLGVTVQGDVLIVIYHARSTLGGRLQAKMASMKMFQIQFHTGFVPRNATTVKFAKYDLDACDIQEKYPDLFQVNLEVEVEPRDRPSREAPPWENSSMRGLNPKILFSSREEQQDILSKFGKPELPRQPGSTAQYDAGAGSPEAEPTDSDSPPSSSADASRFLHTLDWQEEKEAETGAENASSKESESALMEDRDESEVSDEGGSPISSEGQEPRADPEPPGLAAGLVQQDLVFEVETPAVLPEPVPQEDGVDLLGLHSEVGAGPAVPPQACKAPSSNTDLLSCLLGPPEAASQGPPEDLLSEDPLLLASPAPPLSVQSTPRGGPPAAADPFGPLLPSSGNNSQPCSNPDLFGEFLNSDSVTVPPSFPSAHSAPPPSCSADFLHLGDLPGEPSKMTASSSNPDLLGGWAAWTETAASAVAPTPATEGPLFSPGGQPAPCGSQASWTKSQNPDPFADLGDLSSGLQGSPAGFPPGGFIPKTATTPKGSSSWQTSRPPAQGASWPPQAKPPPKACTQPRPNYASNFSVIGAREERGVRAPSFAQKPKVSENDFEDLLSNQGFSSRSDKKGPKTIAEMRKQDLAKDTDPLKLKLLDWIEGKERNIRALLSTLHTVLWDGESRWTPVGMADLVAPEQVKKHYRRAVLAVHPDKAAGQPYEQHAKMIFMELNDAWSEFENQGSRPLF
T1 sequence (Q8IVW4 whole entry): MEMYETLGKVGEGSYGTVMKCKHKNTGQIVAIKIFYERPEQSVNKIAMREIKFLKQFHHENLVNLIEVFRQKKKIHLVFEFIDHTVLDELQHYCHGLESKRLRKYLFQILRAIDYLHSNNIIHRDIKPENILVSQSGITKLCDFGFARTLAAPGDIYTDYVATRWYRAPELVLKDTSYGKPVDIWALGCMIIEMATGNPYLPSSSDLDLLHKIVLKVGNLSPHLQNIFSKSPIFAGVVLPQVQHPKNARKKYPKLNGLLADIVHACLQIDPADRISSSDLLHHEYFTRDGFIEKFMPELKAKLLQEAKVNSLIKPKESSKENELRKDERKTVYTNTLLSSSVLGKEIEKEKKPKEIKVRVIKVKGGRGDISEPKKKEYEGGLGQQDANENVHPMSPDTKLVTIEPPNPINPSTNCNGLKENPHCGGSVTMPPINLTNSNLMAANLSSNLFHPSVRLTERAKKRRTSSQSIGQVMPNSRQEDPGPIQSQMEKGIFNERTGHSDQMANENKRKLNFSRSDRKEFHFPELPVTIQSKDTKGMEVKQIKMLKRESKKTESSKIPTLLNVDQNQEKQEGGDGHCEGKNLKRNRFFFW
T21 sequence (P16234 24-1089): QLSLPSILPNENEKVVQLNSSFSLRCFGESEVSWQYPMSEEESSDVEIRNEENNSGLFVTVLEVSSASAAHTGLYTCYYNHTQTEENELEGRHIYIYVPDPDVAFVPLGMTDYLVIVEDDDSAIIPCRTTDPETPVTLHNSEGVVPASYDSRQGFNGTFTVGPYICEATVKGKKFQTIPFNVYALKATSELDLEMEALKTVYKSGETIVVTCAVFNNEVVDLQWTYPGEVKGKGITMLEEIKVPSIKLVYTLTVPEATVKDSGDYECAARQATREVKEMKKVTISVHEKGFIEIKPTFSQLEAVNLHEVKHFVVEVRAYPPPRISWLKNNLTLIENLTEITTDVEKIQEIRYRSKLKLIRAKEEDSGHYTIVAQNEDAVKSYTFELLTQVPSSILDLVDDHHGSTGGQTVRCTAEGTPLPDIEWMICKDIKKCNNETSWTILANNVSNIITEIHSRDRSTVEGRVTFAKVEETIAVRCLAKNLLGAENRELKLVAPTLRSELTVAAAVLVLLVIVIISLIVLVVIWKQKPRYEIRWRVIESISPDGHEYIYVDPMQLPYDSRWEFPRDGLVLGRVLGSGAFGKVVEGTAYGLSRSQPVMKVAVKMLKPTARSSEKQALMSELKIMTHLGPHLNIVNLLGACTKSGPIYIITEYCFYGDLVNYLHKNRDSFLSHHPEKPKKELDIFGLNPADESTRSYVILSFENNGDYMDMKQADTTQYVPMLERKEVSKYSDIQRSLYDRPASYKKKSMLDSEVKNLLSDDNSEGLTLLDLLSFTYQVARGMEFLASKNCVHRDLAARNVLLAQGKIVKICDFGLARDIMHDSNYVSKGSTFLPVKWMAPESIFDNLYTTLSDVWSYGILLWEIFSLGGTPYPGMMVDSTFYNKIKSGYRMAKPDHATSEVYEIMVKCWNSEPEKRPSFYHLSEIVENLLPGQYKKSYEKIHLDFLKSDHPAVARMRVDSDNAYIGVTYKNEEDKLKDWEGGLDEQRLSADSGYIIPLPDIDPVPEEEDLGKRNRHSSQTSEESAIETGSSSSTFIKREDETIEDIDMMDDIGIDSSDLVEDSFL
T24 sequence (P48730 whole entry): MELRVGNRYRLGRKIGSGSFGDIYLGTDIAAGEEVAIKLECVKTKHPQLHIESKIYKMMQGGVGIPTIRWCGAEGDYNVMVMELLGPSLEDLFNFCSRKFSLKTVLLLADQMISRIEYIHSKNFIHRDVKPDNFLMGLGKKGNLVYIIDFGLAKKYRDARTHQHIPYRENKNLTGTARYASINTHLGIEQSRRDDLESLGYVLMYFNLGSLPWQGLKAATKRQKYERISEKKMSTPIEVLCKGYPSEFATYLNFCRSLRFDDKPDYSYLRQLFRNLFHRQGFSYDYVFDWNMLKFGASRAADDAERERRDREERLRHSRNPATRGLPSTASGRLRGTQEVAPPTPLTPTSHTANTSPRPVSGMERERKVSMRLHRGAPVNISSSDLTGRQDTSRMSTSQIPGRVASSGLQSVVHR

CN(C)C(=O)c1cc2cnc(Nc3ccc(-c4csc5c(=O)cc(N6CCOCC6)oc45)cc3)nc2n1C1CCCC1 [SRX3177]
remaining binding at 1 µM (kinome (kinase panel) [1]): 91% | remaining binding at 1 µM (kinome (kinase panel) [2]): 97% | remaining binding at 1 µM (kinome (kinase panel) [3]): 90% | remaining binding at 1 µM (kinome (kinase panel) [4]): 94% | remaining binding at 1 µM (kinome (kinase panel) [5]): 66% | remaining binding at 1 µM (kinome (kinase panel) [6]): 78% | remaining binding at 1 µM (kinome (kinase panel) [7]; TYK2(JH1domain-catalytic)): 69% | remaining binding at 1 µM (kinome (kinase panel) [7]; TYK2(JH2domain-pseudokinase)): 9.7% | remaining binding at 1 µM (kinome (kinase panel) [8]): 80% | remaining binding at 1 µM (kinome (kinase panel) [9]): 73% | remaining binding at 1 µM (kinome (kinase panel) [10]): 8.9% | remaining binding at 1 µM (kinome (kinase panel) [11]): 56% | remaining binding at 1 µM (kinome (kinase panel) [12]): 100% | remaining binding at 1 µM (kinome (kinase panel) [13]): 96% | remaining binding at 1 µM (kinome (kinase panel) [14]): 82% | remaining binding at 1 µM (kinome (kinase panel) [15]): 80% | remaining binding at 1 µM (kinome (kinase panel) [16]): 94% | remaining binding at 1 µM (kinome (kinase panel) [17]): 96% | remaining binding at 1 µM (kinome (kinase panel) [18]): 28% | remaining binding at 1 µM (kinome (kinase panel) [19]): 100% | remaining binding at 1 µM (kinome (kinase panel) [20]): 100% | remaining binding at 1 µM (kinome (kinase panel) [21]): 60% | remaining binding at 1 µM (kinome (kinase panel) [22]): 98% | remaining binding at 1 µM (kinome (kinase panel) [23]): 100% | remaining binding at 1 µM (kinome (kinase panel) [24]): 83% | remaining binding at 1 µM (kinome (kinase panel) [25]): 100% | remaining binding at 1 µM (kinome (kinase panel) [26]): 94% | remaining binding at 1 µM (kinome (kinase panel) [27]): 46% | remaining binding at 1 µM (kinome (kinase panel) [28]): 100% | remaining binding at 1 µM (kinome (kinase panel) [29]): 98% | remaining binding at 1 µM (kinome (kinase panel) [30]): 100% | remaining binding at 1 µM (kinome (kinase panel) [31]): 60% | remaining binding at 1 µM (kinome (kinase panel) [32]): 76%
